# Tested on: MC38 tumors
# Experiment: MC38 subcutaneous syngeneic tumor model in WT C57Bl/6J mice
# Conditions: LTV1 6 mg/kg/dose, treatment analogous to L1
# Method: All mice husbandry, experiments, and euthanasia were performed in accordance with Johns Hopkins IACUC approved protocols. WT C57Bl/6J, Balb/cJ, and PTPN22 KO (B6.Cg-Ptpn22tm2Achn/J) mice were purchased from JAX and bred in-house. For syngeneic immunocompetent mouse models, aged-matched 8-12 week old female mice were injected with MC38 (2.5×10^5) or EG7 (2.5×10^5 for rejection and 5×10^5 for treatment) or CT26 (5×10^5) subcutaneously in the right hind limb. […] LTV1 was also dissolved in DMSO and diluted to the same final formulation for administration at 6 mg/kg/dose. Vehicle injections contained 10% DMSO and 5% cremophor-EL in PBS.
compound,measurement,value
Cc1ccccc1N1C(=O)/C(=C/c2ccc(OCc3cccc(C(=O)O)c3)cc2)C(=O)NC1=S [LTV1],MC38 tumor growth compared to vehicle,moderately decreased tumor growth

# From patent US20220267274A1, “TARGETING PTPN22 IN CANCER THERAPY” (The Johns Hopkins University, priority 2019, published 2022)
